# According to PubChem BioAssay (NCI):
#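 Tested at 5 concentrations; 48 h exposure; 96-well plates; endpoints linearly interpolated, else capped at highest concentration. At the GI50, growth is halved. TGI is the concentration that stops growth completely.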
# Key:
# Experiment in all cases: NCI tumour cell line growth inhibition, 48 h
# [1] = test system: SK-MEL-28 melanoma
# [2] = test system: MOLT-4 leukemia
# [3] = test system: DU-145 prostate
# [4] = test system: A498 renal
# [5] = test system: K-562 leukemia
# [6] = test system: OVCAR-5 ovarian
# [7] = test system: HCC-2998 colon
# [8] = test system: PC-3 prostate
# [9] = test system: HS 578T breast
# [10] = test system: SNB-19 CNS
Compound,GI50 [1] [µM],TGI [1] [µM],GI50 [2] [µM],TGI [2] [µM],GI50 [3] [µM],TGI [3] [µM],GI50 [4] [µM],TGI [4] [µM],GI50 [5] [µM],TGI [5] [µM],GI50 [6] [µM],TGI [6] [µM],GI50 [7] [µM],TGI [7] [µM],GI50 [8] [µM],TGI [8] [µM],GI50 [9] [µM],TGI [9] [µM],GI50 [10] [µM],TGI [10] [µM]
C=C(CN1CCc2ccccc2C1)c1ccc(C(=O)Nc2ccc(N)cc2)cc1,24.9,72.5,1.93,53,21.1,81.3,21.4,> 100,1.94,> 100,29.9,> 100,14.6,43,3.08,48,29.8,> 100,28.3,> 100
Cc1ccc2c(=O)c3cccc(CC(=O)O)c3oc2c1C,> 100,> 100,> 100,> 100,> 100,> 100,70.6,> 100,> 100,> 100,> 100,> 100,> 100,> 100,> 100,> 100,> 100,> 100,> 100,> 100
CC(C)(O)C1OCC(C2CCC3(C)C4=CCC5C(C)(C)C(O)CCC5(C)C4CCC23C)CC1O (centres undefined),,29.2,,41.9,,31.1,,30.4,,17.3,,39.6,,30.1,,26.7,,29.3,,36.9
Cc1ccc2c(N)c(C(=O)N[C@H]3CCc4cc(N5CC6CCC(C5)N6)ccc4C3)sc2n1,0.586,2.81,0.174,4.49,0.165,1.48,0.775,2.65,0.203,18,0.47,3,0.342,2.08,0.676,,0.58,2.44,0.325,2.49
COc1nc(C)cc2c(=O)n(-c3ccccc3)n(CCCN3CCN(c4ccc(Cl)cc4)CC3)c(=O)c12,> 50,> 50,> 50,> 50,> 50,> 50,> 50,> 50,35,> 50,> 50,> 50,> 50,> 50,15.3,> 50,27.4,> 50,18.8,> 50
O=C(C(Br)Br)C(Br)C(Br)c1ccccc1 (centres undefined),6.7,22.1,1.82,4.76,11.4,23.6,19.7,35,1.89,5.37,6.6,22.2,16.2,33,3.67,15.2,43.5,> 100,17.4,35.2
CCSc1nc(N=Cc2cccs2)c2cn[nH]c2n1,22.3,> 100,35.8,> 100,15.1,> 100,10.9,38.1,26.1,> 100,14.2,50.9,2.87,11.3,20.7,> 100,16.2,> 100,45.2,> 100
O=C1c2ccccc2-c2c1c1ccccc1c(=O)n2CCCN1CCOCC1,> 100,> 100,8.11,> 100,10.1,> 82.6,21.7,71.4,> 100,> 100,35.9,> 100,> 40.1,> 100,26.2,> 100,4.15,14.8,14.2,39.1
COc1c(O)ccc2c1CN1CCc3cc4c(cc3C1C2)OCO4 (centres undefined),,> 100,,> 100,,> 100,,> 78.9,,> 100,,> 100,,> 100,,> 100,,> 100,,> 100
C/C=C(\C)C(=O)O[C@H]1C=CC(=O)O[C@H]1CNC(=O)[C@H](C)O,17.4,32.4,21.4,46.6,31.7,> 100,22.8,43.7,22.3,> 100,19.9,38.3,17.7,33.7,24.5,79.4,18.6,47.2,30.5,> 100
S=C(N/N=C/c1ccccn1)Nc1ccccn1,2.51,> 100,0.467,> 100,2.58,> 100,1.62,33.9,1.84,> 100,3.86,> 100,2.19,> 100,1.46,> 100,4.8,> 100,2.16,> 100
CCOC(=O)Oc1c(OC)cc(C(=O)O[C@@H]2C[C@@H]3CN4CCc5c([nH]c6cc(OC)ccc56)[C@H]4C[C@@H]3[C@H](C(=O)OC)[C@H]2OC)cc1OC,6.32,18.8,4.04,23.3,13.5,95.8,7.38,> 100,3.5,35.7,18,48.1,5.06,20,4.92,33.8,7.09,55.9,5.04,20.9
O=[N+]([O-])/C=C/c1c[nH]c2ccccc12,17.4,32.5,13.9,35.5,15.5,32.5,16.2,31.2,21.7,61,17.8,35.2,4.35,12.5,24.2,64.8,21.2,66.6,18.4,35.4
